Results published in patent US12600723B2, “Tetracyclic compounds as DGK inhibitors” (Incyte Corporation, priority 2022, dated 2026).

Assays:
DGKζ = target: T1, DGKζ (Homo sapiens, UniProt Q13574); assay: In vitro DGKζ inhibition assay (ADP-Glo); assay type: biochemical; conditions: His-tagged human recombinant DGKζ 0.4 nM, 30 μM ATP, 20 μM DLG, 90 minute incubation
T1 construct: His; purchased Signal Chem D30-10H
Protocol: (§1) The DGKα and DGKζ biochemical reactions were performed using His-tagged human recombinant enzymes (Signal Chem, DGKα, #D21-10BH; DGKζ, #D30-10H)) and DLG (Dilauroyl-sn-glycerol) lipid substrate (Signal Chem, #D430-59). ADP-Glo assay was performed using ADP-Glom kinase Assay kit (Promega, #V9104). The reactions were carried out in assay buffer containing 40 mM Tris, pH 7.5, 0.1% CHAPS, 0.1% Prionex, 40 mM NaCl, 5 mM MgCl2, 1 mM CaCl2), and 1 mM DTT. DGKα reactions contained 0.1 nM DGKα, 50 μM ATP, and 20 μM DLG. And DGKζ reactions contained 0.4 nM DGKζ, 30 μM ATP, and 20 μM DLG.
(§2) For compound inhibition studies, 40 nL test compound in DMSO was added to wells of white polystyrene plates in 384-well (Greiner, #784075) or 1536-well format (Greiner, #782075). Compounds were added with top concentration of 2 mM with 11 point, 3-fold dilution series. Enzyme solution (contains 2×DGK enzyme concentration in 1× assay buffer) was added to the plate in 2 μL/well volume, followed by 2 μL/well of substrate solution (contains 2× concentration of ATP and DLG substrate in 1× assay buffer). Plates were then centrifuged for 1 min at 1200 RPM and sealed or lidded. For 4 μL reaction volume, test compounds were therefore diluted 100× to final top concentration of 20 μM. After 90 minute incubation, reactions were quenched by addition of 2 μL/well Promega ADP-Glo Reagent, followed by centrifugation and lidding. After 60 min incubation, 2 μL/well Promega Kinase Detection Reagent was added, plates centrifuged, and incubated for 30 min. Plates were then read using Luminescence method on BMG PHERAstar FSX plate reader. Percent inhibition was calculated and IC50s were determined using 4-parameter fit in Genedata Screener. Labcyte Echo acoustic dispenser was used for compound addition, and Formulatrix Tempest liquid handler was used for all reagent dispenses.

DGKα = target: T2, DGKα (Homo sapiens, UniProt P23743); assay: In vitro DGKα inhibition assay (ADP-Glo); assay type: biochemical; conditions: His-tagged human recombinant DGKα 0.1 nM, 50 μM ATP, 20 μM DLG, 90 minute incubation
T2 construct: His; purchased Signal Chem D21-10BH
T2 sequence (P23743 whole entry): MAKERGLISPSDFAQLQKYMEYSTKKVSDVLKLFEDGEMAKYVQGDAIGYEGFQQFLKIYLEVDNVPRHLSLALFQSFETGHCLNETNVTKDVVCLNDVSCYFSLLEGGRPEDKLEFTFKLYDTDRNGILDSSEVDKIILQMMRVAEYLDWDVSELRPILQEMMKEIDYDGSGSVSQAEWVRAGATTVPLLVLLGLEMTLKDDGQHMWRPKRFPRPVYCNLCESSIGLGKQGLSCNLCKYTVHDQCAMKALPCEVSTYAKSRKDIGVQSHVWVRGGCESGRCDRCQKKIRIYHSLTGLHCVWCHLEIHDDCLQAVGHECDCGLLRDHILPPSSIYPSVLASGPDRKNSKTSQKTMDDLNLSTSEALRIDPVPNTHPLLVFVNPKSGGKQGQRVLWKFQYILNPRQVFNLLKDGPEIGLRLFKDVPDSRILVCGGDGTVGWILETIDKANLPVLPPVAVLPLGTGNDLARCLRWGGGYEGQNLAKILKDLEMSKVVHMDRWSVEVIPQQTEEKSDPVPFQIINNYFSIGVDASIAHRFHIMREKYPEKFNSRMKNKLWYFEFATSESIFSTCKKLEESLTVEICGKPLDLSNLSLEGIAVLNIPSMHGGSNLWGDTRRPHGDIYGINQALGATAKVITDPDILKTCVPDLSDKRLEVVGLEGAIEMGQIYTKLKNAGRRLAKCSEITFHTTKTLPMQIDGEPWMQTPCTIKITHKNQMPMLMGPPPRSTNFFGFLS
Protocol: as §1, §2

T1 sequence (Q13574 whole entry): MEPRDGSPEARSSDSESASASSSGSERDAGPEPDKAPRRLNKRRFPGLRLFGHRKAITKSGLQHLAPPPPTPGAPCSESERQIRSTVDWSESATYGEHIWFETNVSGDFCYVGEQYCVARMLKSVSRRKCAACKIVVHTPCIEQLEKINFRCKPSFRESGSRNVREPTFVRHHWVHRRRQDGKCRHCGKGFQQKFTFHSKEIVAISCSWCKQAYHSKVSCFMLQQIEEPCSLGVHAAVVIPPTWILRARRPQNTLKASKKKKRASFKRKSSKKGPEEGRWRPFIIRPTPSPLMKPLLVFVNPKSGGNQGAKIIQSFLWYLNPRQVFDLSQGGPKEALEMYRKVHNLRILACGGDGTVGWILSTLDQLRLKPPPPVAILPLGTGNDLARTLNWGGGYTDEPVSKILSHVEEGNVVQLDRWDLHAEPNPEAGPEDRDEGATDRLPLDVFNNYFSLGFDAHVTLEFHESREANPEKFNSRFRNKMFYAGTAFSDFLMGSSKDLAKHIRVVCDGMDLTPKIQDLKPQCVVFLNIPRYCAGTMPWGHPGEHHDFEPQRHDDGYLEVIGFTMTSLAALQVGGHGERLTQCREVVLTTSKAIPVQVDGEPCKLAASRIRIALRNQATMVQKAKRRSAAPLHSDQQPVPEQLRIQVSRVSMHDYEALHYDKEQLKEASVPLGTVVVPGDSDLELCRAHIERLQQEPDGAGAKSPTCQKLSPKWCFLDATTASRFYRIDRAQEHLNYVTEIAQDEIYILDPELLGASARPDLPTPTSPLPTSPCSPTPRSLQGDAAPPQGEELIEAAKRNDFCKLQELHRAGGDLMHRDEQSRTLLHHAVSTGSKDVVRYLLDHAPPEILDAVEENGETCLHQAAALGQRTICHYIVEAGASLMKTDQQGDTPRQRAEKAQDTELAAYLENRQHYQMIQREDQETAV

An IC50 (DGKζ) greater than 2000 nM and an IC50 (DGKα) of no more than 40 nM were found for `C[C@@H]1CN2c3c(c(=O)n(C)c4ccccc34)N(C)C(=O)[C@H]2CN1C(c1ccc(F)cc1)c1ccc(F)cc1` [Example 3, (2R,4aR)-3-(Bis(4-fluorophenyl)methyl)-2,6,8-trimethyl-2,3,4,4a,6,8-hexahydro-1H-pyrazino[1′,2′:4,5]pyrazino[2,3-c]quinoline-5,7-dione] in this work.

An IC50 (DGKζ) of 200 to 2000 nM and an IC50 (DGKα) of 40 to 200 nM were found for `COCCN1C(=O)[C@H]2CN(C(c3ccc(F)cc3)c3ccc(F)cc3)[C@H](C)CN2c2c1c(=O)n(C)c1ccc(C#N)nc21` [Example 2, (8aR,11R)-10-(Bis(4-fluorophenyl)methyl)-7-(2-methoxyethyl)-5,11-dimethyl-6,8-dioxo-5,7,8,8a,9,10,11,12-octahydro-6H-pyrazino[1′,2′:4,5]pyrazino[2,3-c][1,5]naphthyridine-2-carbonitrile] in this work.

An IC50 (DGKζ) of 200 to 2000 nM and an IC50 (DGKα) of no more than 40 nM were found for `C[C@@H]1CN2c3c(c(=O)n(C)c4ccc(C#N)nc34)N(C)C(=O)[C@H]2CN1C(c1ccc(F)cc1)c1ccc(F)cc1` [Example 1, (8aR,11R)-10-(Bis(4-fluorophenyl)methyl)-5,7,11-trimethyl-6,8-dioxo-5,7,8,8a,9,10,11,12-octahydro-6H-pyrazino[1′,2′:4,5]pyrazino[2,3-c][1,5]naphthyridine-2-carbonitrile] in this work.

An IC50 (DGKζ) greater than 2000 nM and an IC50 (DGKα) of no more than 40 nM were found for `C[C@@H]1CN2c3c(c(=O)n(C)c4ccc(=O)[nH]c34)N(C)C(=O)[C@H]2CN1C(c1ccc(F)cc1)c1ccc(F)cc1` [Example 9, (8aR,11R)-10-(Bis(4-fluorophenyl)methyl)-5,7,11-trimethyl-5,7,9,10,11,12-hexahydro-1H-pyrazino[1′,2′:4,5]pyrazino[2,3-c][1,5]naphthyridine-2,6,8(8aH)-trione] in this work.

An IC50 (DGKζ) of 200 to 2000 nM and an IC50 (DGKα) of no more than 40 nM were found for `C[C@@H]1CN2c3c(c(=O)n(C)c4ccc(F)nc34)N(C)C(=O)[C@H]2CN1C(c1ccc(F)cc1)c1ccc(F)cc1` [Example 4, (8aR,11R)-10-(Bis(4-fluorophenyl)methyl)-2-fluoro-5,7,11-trimethyl-5,7,9,10,11,12-hexahydro-6H-pyrazino[1′,2′:4,5]pyrazino[2,3-c][1,5]naphthyridine-6,8(8aH)-dione] in this work.

An IC50 (DGKζ) greater than 2000 nM and an IC50 (DGKα) of no more than 40 nM were found for `COc1ccc2c(n1)c1c(c(=O)n2C)N(C)C(=O)[C@H]2CN(C(c3ccc(F)cc3)c3ccc(F)cc3)[C@H](C)CN12` [Example 7, (8aR,11R)-10-(Bis(4-fluorophenyl)methyl)-2-methoxy-5,7,11-trimethyl-5,7,9,10,11,12-hexahydro-6H-pyrazino[1′,2′:4,5]pyrazino[2,3-c][1,5]naphthyridine-6,8(8aH)-dione] in this work.

An IC50 (DGKζ) greater than 2000 nM and an IC50 (DGKα) of no more than 40 nM were found for `C[C@@H]1CN2c3c(c(=O)n(C)c4ccc(-c5cnn(C)c5)nc34)N(C)C(=O)[C@H]2CN1C(c1ccc(F)cc1)c1ccc(F)cc1` [Example 8, (8aR,11R)-10-(Bis(4-fluorophenyl)methyl)-5,7,11-trimethyl-2-(1-methyl-1H-pyrazol-4-yl)-5,7,9,10,11,12-hexahydro-6H-pyrazino[1′,2′:4,5]pyrazino[2,3-c][1,5]naphthyridine-6,8(8aH)-dione] in this work.

An IC50 (DGKζ) greater than 2000 nM and an IC50 (DGKα) of no more than 40 nM were found for `Cc1ccc2c(n1)c1c(c(=O)n2C)N(C)C(=O)[C@H]2CN(C(c3ccc(F)cc3)c3ccc(F)cc3)[C@H](C)CN12` [Example 5, (8aR,11R)-10-(Bis(4-fluorophenyl)methyl)-2,5,7,11-tetramethyl-5,7,9,10,11,12-hexahydro-6H-pyrazino[1′,2′:4,5]pyrazino[2,3-c][1,5]naphthyridine-6,8(8aH)-dione] in this work.

An IC50 (DGKζ) of no more than 40 nM and an IC50 (DGKα) of no more than 40 nM were found for `C[C@@H]1CN2c3c(c(=O)n(C)c4ccc(CC#N)nc34)N(C)C(=O)[C@H]2CN1C(c1ccc(F)cc1)c1ccc(F)cc1` [Example 6, 2-((8aR,11R)-10-(Bis(4-fluorophenyl)methyl)-5,7,11-trimethyl-6,8-dioxo-5,7,8,8a,9,10,11,12-octahydro-6H-pyrazino[1′,2′:4,5]pyrazino[2,3-c][1,5]naphthyridin-2-yl)acetonitrile] in this work.
